In patent publication US20240400555A1 (Initial Therapeutics, Inc., priority 2023, published 2024) one finds IC50 data, which are given here for 30 compounds.

This assay deals with MV-4-11 cells. Put plainly: Cell Viability Assay in MV-4-11 Cells. It counts as cell-based. The note with it: Homo sapiens, MV4-11, 72 h, MV-4-11 cells, 72 h, Cell-Titer Glo; read-out: IC50. The method, boiled down: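 MV-4-11 cells at 7,000/well in IMDM with 10% FBS, exposed to compound for 72 h. Viability by CellTiter-Glo luminescence, normalized to DMSO as 100%, fitted with a four-parameter curve.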
On to `CCc1nnc(-c2ccc(C(=O)N(c3nccc4cc(Cl)cc(C)c34)[C@@H]3CCCNC3)nc2)s1` [Example 730, (R)—N-(6-chloro-8-methylisoquinolin-1-yl)-5-(5-ethyl-1,3,4-thiadiazol-2-yl)-N-(piperidin-3-yl)picolinamide], for which the IC50 came to 0.26 µM. As for `Cc1cccc2ccnc(N(C(=O)N3CCCC(N4C(=O)c5ccccc5C4=O)C3)[C@@H]3CCCNC3)c12` (stereo partly drawn) [Example 345, 3-(1,3-dioxoisoindolin-2-yl)-N-(8-methylisoquinolin-1-yl)-N—((R)-piperidin-3-yl)piperidine-1-carboxamide], the IC50 was found to be 0.3 µM.

Consider `COCCc1nnc(-c2ccc(C(=O)N(c3nccc4cc(F)cc(C)c34)[C@@H]3CCCNC3)c(F)c2)s1` [Example 852, 2-fluoro-N-(6-fluoro-8-methyl-1-isoquinolyl)-4-[5-(2-methoxyethyl)-1,3,4-thiadiazol-2-yl]-N-[(3R)-3-piperidyl]benzamide], for which the half-maximal inhibitory concentration (IC50) is 0.056 µM. Then `Cn1cc(-c2ccc(C(=O)N(c3nccc4sc(C#CCCCO)cc34)[C@@H]3CCCNC3)cc2O)cn1` [Example 476, 3-hydroxy-N-[2-(5-hydroxypent-1-ynyl)thieno[3,2-c]pyridin-4-yl]-4-(1-methylpyrazol-4-yl)-N-[(3R)-3-piperidyl] benzamide], with 0.22 µM. `Cn1cc(-c2ccc(C(=O)N(c3nccc4sc(-c5cccnc5)cc34)[C@@H]3CCCNC3)c(F)c2)nn1` [Example 508, 2-fluoro-4-(1-methyltriazol-4-yl)-N-[(3R)-3-piperidyl]-N-[2-(3-pyridyl)thieno [3,2-c]pyridin-4-yl] benzamide]: the IC50 is 0.3 µM.

Regarding `Cn1cc(-c2ccc(C(=O)N(c3nccc4sc(-c5ccc6[nH]ccc6c5)cc34)[C@@H]3CCCNC3)c(F)c2)nn1` [Example 546, 2-fluoro-N-[2-(1H-indol-5-yl)thieno[3,2-c]pyridin-4-yl]-4-(1-methyltriazol-4-yl)-N-[(3R)-3-piperidyl]benzamide], the IC50 is 0.092 µM.

For the compound `Cc1ccc(Cl)c2ccnc(N(C(=O)c3ccc(-c4cn(C)nn4)cc3)[C@@H]3CCCNC3)c12` [Example 855, N-(5-chloro-8-methyl-1-isoquinolyl)-4-(1-methyltriazol-4-yl)-N-[(3R)-3-piperidyl]benzamide], the concentration for half-maximal inhibition (IC50) was found to be 0.42 µM.

Take `Cc1cccc2ccnc(N(C(=O)c3ccc(-c4cncnc4N)cc3F)[C@@H]3CCCNC3)c12` [Example 353, (R)-4-(4-aminopyrimidin-5-yl)-2-fluoro-N-(8-methylisoquinolin-1-yl)-N-(piperidin-3-yl)benzamide]: the half-maximal inhibitory concentration (IC50) is 0.54 µM. Then `Cc1cccc2ccnc(N(C(=O)c3ccc(Nc4ncc(CO)cn4)cc3F)[C@@H]3CCCNC3)c12` [Example 322, (R)-2-fluoro-4-((5-(hydroxymethyl)pyrimidin-2-yl)amino)-N-(8-methylisoquinolin-1-yl)-N-(piperidin-3-yl)benzamide], with 0.18 µM. `C#Cc1csc2c(N(C(=O)c3ccc(-c4cn(C)nn4)cc3F)[C@@H]3CCCNC3)nccc12` [Example 676, N-(3-ethynylthieno[2,3-c]704yridine-7-yl)-2-fluoro-4-(1-methyltriazol-4-yl)-N-[(3R)-3-piperidyl]benzamide]: the concentration for half-maximal inhibition (IC50) amounted to 0.19 µM. For `COC/C=C(\Cl)c1ccnc(Nc2ccc(C(=O)N(c3nccc4cccc(C)c34)[C@@H]3CCCNC3)c(F)c2)n1` [Example 731, (R)-4-((4-(1-chloro-3-methoxyprop-1-en-1-yl)pyrimidin-2-yl)amino)-2-fluoro-N-(8-methylisoquinolin-1-yl)-N-(piperidin-3-yl)benzamide], the IC50 amounted to 0.12 µM. `CCc1nnc(-c2ccc(C(=O)N(c3nccc4cc(Cl)cc(C)c34)[C@@H]3CCCNC3)c(F)c2)o1` [Example 654, (R)—N-(6-chloro-8-methylisoquinolin-1-yl)-4-(5-ethyl-1,3,4-oxadiazol-2-yl)-2-fluoro-N-(piperidin-3-yl)benzamide]: the IC50 is 0.15 µM. Consider `Cn1cc(-c2ccc(C(=O)N(c3nccc4sc(-c5ccc(-c6cc[nH]n6)cc5)cc34)[C@@H]3CCCNC3)c(F)c2)nn1` [Example 529, 2-fluoro-4-(1-methyltriazol-4-yl)-N-[(3R)-3-piperidyl]-N-[2-[4-(1H-pyrazol-3-yl)phenyl]thieno [3,2-c]pyridin-4-yl] benzamide], for which the IC50 stood at 0.14 µM.

Regarding `Cc1nnc(-c2ccc(C(=O)N(c3nccc4cc(-c5nccs5)cc(C)c34)[C@@H]3CCCNC3)c(F)c2)s1` (racemic) [Example 733, 2-fluoro-4-(5-methyl-1,3,4-thiadiazol-2-yl)-N-(8-methyl-6-thiazol-2-yl-1-isoquinolyl)-N-[rac-(3R)-3-piperidyl] benzamide], the IC50 was found to be 0.046 µM. For the compound `Cc1cccc2ccnc(N(C(=O)c3ccc(Nc4nccc(C5=CCN(C)CC5)n4)cc3F)[C@@H]3CCCNC3)c12` [Example 682, (R)-2-fluoro-4-((4-(1-methyl-1,2,3,6-tetrahydropyridin-4-yl)pyrimidin-2-yl)amino)-N-(8-methylisoquinolin-1-yl)-N-(piperidin-3-yl)benzamide], the half-inhibitory concentration (IC50) stood at 0.083 µM. For `Cc1cccc2ccnc(N(C(=O)c3ccc(Nc4nccc(N(C)C5CCOCC5)n4)cc3F)[C@@H]3CCCNC3)c12` [Example 957, (R)-2-fluoro-4-(4-(methyl(tetrahydro-2H-pyran-4-yl)amino)pyrimidin-2-ylamino)-N-(8-methylisoquinolin-1-yl)-N-(piperidin-3-yl)benzamide], the IC50 amounted to 0.023 µM. In the case of `CC(C)NC(=O)c1ccc(-c2cc3c(N(C(=O)c4ccc(-c5cn(C)nn5)cc4F)[C@@H]4CCCNC4)nccc3s2)cc1` [Example 522, 2-fluoro-N-[2-[4-(isopropylcarbamoyl)phenyl]thieno[3,2-c]pyridin-4-yl]-4-(1-methyltriazol-4-yl)-N-[(3R)-3-piperidyl]benzamide], the IC50 amounted to 0.77 µM. On to `Cc1ccnc(Nc2ccc(C(=O)N(c3nccc4cccc(C)c34)[C@@H]3CCCNC3)c(F)c2)n1` [Example 319, (R)-2-fluoro-N-(8-methylisoquinolin-1-yl)-4-((4-methylpyrimidin-2-yl)amino)-N-(piperidin-3-yl)benzamide], for which the IC50 turned out to be 0.066 µM. Then `CC(C)(C#N)c1cc(-c2cc3c(N(C(=O)c4ccc(-n5nnc6cccnc65)cc4F)[C@@H]4CCCNC4)nccc3s2)ccn1` [Example 463], with 0.32 µM. As to `Cc1cccc2ccnc(N(C(=O)c3ccc(Nc4nccc(N5CC(O)C5)n4)cc3F)[C@@H]3CCCNC3)c12` [Example 680, (R)-2-fluoro-4-((4-(3-hydroxyazetidin-1-yl)pyrimidin-2-yl)amino)-N-(8-methylisoquinolin-1-yl)-N-(piperidin-3-yl)benzamide], the IC50 stood at 0.075 µM. As for `O=C(c1ccc(-n2nnc3cccnc32)cc1F)N(c1nccc2cccnc12)[C@@H]1CCCNC1` [Example 325, (R)-4-(3H-[1,2,3]triazolo[4,5-b]pyridin-3-yl)-2-fluoro-N-(1,7-naphthyridin-8-yl)-N-(piperidin-3-yl)benzamide], the IC50 amounted to 1.5 µM. `Cn1cc(-c2ccc(C(=O)N(c3nccc4sc(-c5ccc(C(N)C(F)(F)F)cc5)cc34)[C@@H]3CCCNC3)c(F)c2)nn1` (stereo partly drawn) [Example 613, N-(2-(4-(1-amino-2,2,2-trifluoroethyl)phenyl)thieno[3,2-c]pyridin-4-yl)-2-fluoro-4-(1-methyl-1H-1,2,3-triazol-4-yl)-N—((R)-piperidin-3-yl)benzamide]: the 50% inhibitory concentration (IC50) was 0.46 µM. As for `O=C(c1ccc(-n2nnc3cccnc32)cc1F)N(c1nccc2sc(-c3ccc4ncnn4c3)cc12)[C@@H]1CCCNC1` [Example 434, (R)-4-(3H-[1,2,3]triazolo[4,5-b]pyridin-3-yl)-N-(2-([1,2,4]triazolo[1,5-a]pyridin-6-yl)thieno[3,2-c]pyridin-4-yl)-2-fluoro-N-(piperidin-3-yl)benzamide], the half-maximal inhibitory concentration (IC50) worked out at 0.091 µM. `O=C(c1ccc(-n2nnc3cccnc32)cc1F)N(c1nccc2sc(-c3ccnc(C(F)(F)F)c3)cc12)[C@@H]1CCCNC1` [Example 462, 2-fluoro-N-[(3R)-3-piperidyl]-4-(triazolo[4,5-b]pyridin-3-yl)-N-[2-[2-(trifluoromethyl)-4-pyridyl]thieno[3,2-c]pyridin-4-yl]benzamide]: the IC50 amounted to 1 µM. As for `Cc1cc(Cl)cc2ccnc(N(C(=O)c3ccc(-c4cn(C)nn4)nc3)[C@@H]3CCCNC3)c12` [Example 884, N-(6-chloro-8-methyl-1-isoquinolyl)-6-(1-methyltriazol-4-yl)-N-[(3R)-3-piperidyl]pyridine-3-carboxamide], the IC50 was determined as 0.057 µM. For the compound `Cc1csc2ccnc(N(C(=O)c3ccc(-c4cn(C)nn4)cc3Cl)[C@@H]3CCCNC3)c12` [Example 758, (R)-2-chloro-4-(1-methyl-1H-1,2,3-triazol-4-yl)-N-(3-methylthieno[3,2-c]pyridin-4-yl)-N-(piperidin-3-yl)benzamide], the IC50 is 0.17 µM.

As for `O=C(c1ccc(-n2nnc3cccnc32)cc1F)N(c1nccc2ccccc12)[C@@H]1CCCNC1` [Example 313, (R)-4-(3H-[1,2,3]triazolo[4,5-b]pyridin-3-yl)-2-fluoro-N-(isoquinolin-1-yl)-N-(piperidin-3-yl)benzamide], the IC50 was 0.23 µM. Regarding `Cc1cc(-c2ccc(C(=O)N(c3nccc4cccc(C)c34)[C@@H]3CCCNC3)c(F)c2)[nH]n1` [Example 323, (R)-2-fluoro-4-(3-methyl-1H-pyrazol-5-yl)-N-(8-methylisoquinolin-1-yl)-N-(piperidin-3-yl) benzamide], the half-maximal inhibitory concentration (IC50) is 0.44 µM. On to `COc1cc(C)c2c(N(C(=O)c3ccc(-c4nnc(C)s4)nc3)[C@@H]3CCCNC3)nccc2c1F` [Example 911, N-(5-fluoro-6-methoxy-8-methyl-1-isoquinolyl)-6-(5-methyl-1,3,4-thiadiazol-2-yl)-N-[(3R)-3-piperidyl]pyridine-3-carboxamide], for which the IC50 was 0.14 µM.

For the compound `Cn1cc(-c2ccc(C(=O)N(c3nccc4scc(Cl)c34)[C@@H]3CCCNC3)c(F)c2)nn1` [Example 795, (R)—N-(3-chlorothieno[3,2-c]pyridin-4-yl)-2-fluoro-4-(1-methyl-1H-1,2,3-triazol-4-yl)-N-(piperidin-3-yl)benzamide], the half-maximal inhibitory concentration (IC50) came to 0.13 µM.
